This passage reports IC50 results from patent publication US20090227600A1, “4-(PYRAZINE-2-YL) -PYRROLIDINE -2-CARBOXYLIC ACID COMPOUNDS AND DERIVATIVES THEREOF AS HEPATITIS C VIRUS INHIBITORS” (priority 2004, published 2009).

For assay [1], the system named is Huh-7 HCV replicon cells (genotype 1a). Briefly: Replicon ELISA cell based assay, genotype 1a. Set-up: species or system HCV genotype 1a. Particulars: Hepatitis C virus, Huh-7 genotype 1a replicon, 72 hours. As to the method: 100 μL of medium containing 10% FCS were added to each well of clear, flat-bottomed 96 well microplates, excepting wells in the top row. Test compound was diluted in assay medium to twice the final required starting concentration from a 40 mM stock solution in DMSO. 200 μL of the starting dilution were introduced into two wells each in the top row and doubling dilutions made down the plate by the sequential transfer of 100 μL aliquots with thorough mixing in the wells; the final 100 μL were discarded. The two bottom rows were not used for compound dilutions. Huh-7 HCV replicon cell monolayers nearing confluency were stripped from growth flasks with versene-trypsin solution and the cells were resuspended in assay medium at either 2×10^5 cells/mL (sub-line 5-15; genotype 1b; Lohmann, V., Komer, F., Koch, J-O., Herian, U., Thielmann, L. And Bartenschlager, R., 1999, Science, 285, pp 110-113) or at 3×10^5 cells/mL (genotype 1a; Gu, B., Gates, A. T., Isken, O., Behrens, S. E. and Sarisky, R. T., J. Virol., 2003, 77, 5352-5359). 100 μL of cell suspension were added to all wells and the plates incubated at 37° C. for 72 hours in a 5% CO2 atmosphere.
Following incubation, the assay medium was aspirated from the plates. The cell sheets were washed by gentle immersion in phosphate buffered saline (PBS), which was then aspirated off, and fixed with acetone:methanol (1:1) for 5 minutes. Following a further wash with PBS, 100 μL of ELISA diluent (PBS+0.05% v/v Tween 20+2% w/v skimmed milk powder) were added to all wells and the plates incubated at 37° C. for 30 minutes on an orbital platform. The diluent was removed and each well then received 50 μL of a 1/200 dilution of anti-HCV specific, murine, monoclonal antibody (either Virostat #1872 or #1877), except for wells in one of the compound-free control rows which received diluent alone to act as negative controls. The plates were incubated at 37° C. for 2 hours and washed 3 times with PBS/0.05% Tween 20, then 50 μL of horseradish peroxidase conjugated, anti-mouse, rabbit polyclonal serum (Dako #P0260), diluted 1/1000, were added to all wells. The plates were incubated for a further hour, the antibody removed and the cell sheets washed 5 times with PBS/Tween and blotted dry. The assay was developed by the addition of 50 μL of ortho-phenylenediamine/peroxidase substrate in urea/citrate buffer (SigmaFast, Sigma #P-9187) to each well, and colour allowed to develop for up to 15 minutes. The reaction was stopped by the addition of 25 μL per well of 2 M sulphuric acid and the plates were read at 490 nm on a Fluostar Optima spectrophotometer.
The substrate solution was removed and the plates were washed in tap water, blotted dry and the cells stained with 5% carbol fuchsin in water for 30 minutes. The stain was discarded and the cell sheets washed, dried and examined microscopically to assess cytotoxicity.
The absorbance values from all compound-free wells that had received both primary and secondary antibodies were averaged to obtain a positive control value. The mean absorbance value from the compound-free wells that had not received the primary antibody was used to provide the negative (background) control value. The readings from the duplicate wells at each compound concentration were averaged and, after the subtraction of the mean background from all values, were expressed as a percentage of the positive control signal. The quantifiable and specific reduction of expressed protein detected by the ELISA in the presence of a drug can be used as a measure of replicon inhibition. GraFit software was used to plot the curve of percentage inhibition against compound concentration and derive the 50% inhibitory concentration (IC50) for the compound.

Assay [2] concerns the target T1, HCV RNA Polymerase, recombinant full-length NS5B, genotype 1b (Hepatitis C virus genotype 1b, UniProt Q9WMX2).
T1 construct: Recombinant full-length NS5B; made in house
Briefly: In vitro HCV RNA-dependent RNA polymerase inhibition assay, genotype 1b full-length enzyme. It counts as biochemical, HCV genotype 1b. Particulars: genotype 1b full-length NS5B enzyme. As to the method:
Incorporation of [^33P]-GMP into RNA was followed by absorption of the biotin labelled RNA polymer by streptavidin containing SPA beads. A synthetic template consisting of biotinylated 13mer-oligoG hybridised to polyrC was used as a homopolymer substrate.
b) Genotype 1b Full-Length Enzyme
Reaction Conditions were 0.5 μM [^33P]-GTP (20 Ci/mMol), 1 mM Dithiothreitol, 20 mM MgCl2, 5 mM MnCl2, 20 mM Tris-HCl, pH7.5, 1.6 μg/mL polyC/0.256 μM biotinylated oligoG13, 10% glycerol, 0.01% NP-40, 0.2 u/μL RNasin and 50 mM NaCl.
HCV RNA Polymerase (Recombinant full-length NS5B (Lohmann et al, J. Virol. 71 (11), 1997, 8416. ‘Biochemical properties of hepatitis C virus NS5B RNA-dependent RNA polymerase and identification of amino acid sequence motifs essential for enzymatic activity’) expressed in baculovirus and purified to homogeneity) was added to 4 nM final concentration.
5× concentrated assay buffer mix was prepared using 1M MnCl2 (0.25 mL), glycerol (2.5 mL), 10% NP-40 (0.025 mL) and Water (7.225 mL), Total 10 mL.
2× concentrated enzyme buffer contained 1M-Tris-HCl, pH7.5 (0.4 mL), 5M NaCl (0.2 mL), 1M-MgCl2 (0.4 mL), glycerol (1 mL), 10% NP-40 (10 μL), 1M DTT (20 μL) and water (7.97 mL), Total 10 mL.
Substrate Mix was prepared using 5× Concentrated assay Buffer mix (4 μL), [^33P]-GTP (10 μCi/μL, 0.02 μL), 25 μM GTP (0.4 μL), 40 u/μL RNasin (0.1 μL), 20 μg/mL polyrC/biotinylated-oligoG (1.6 μL), and Water (3.94 μL), Total 10 μL.
Enzyme Mix was prepared by adding 1 mg/ml full-length NS5B polymerase (1.5 μL) to 2.81 mL 2×-concentrated enzyme buffer.
The Assay was set up using compound (1 μL), Substrate Mix (10 μL), and Enzyme Mix (added last to start reaction) (10 μL), Total 21 μL.
The reaction was performed in a U-bottomed, white, 96-well plate. The reaction was mixed on a plate-shaker, after addition of the Enzyme, and incubated for 1 h at 22° C. After this time, the reaction was stopped by addition of 40 μL 1.875 mg/ml streptavidin SPA beads in 0.1 M EDTA. The beads were incubated with the reaction mixture for 1 h at 22° C. after which 120 μL 0.1 M EDTA in PBS was added. The plate was sealed, mixed centrifuged and incorporated radioactivity determined by counting in a Trilux (Wallac) or Topcount (Packard) Scintillation Counter.
After subtraction of background levels without enzyme, any reduction in the amount of radioactivity incorporated in the presence of a compound, compared to that in the absence, was taken as a measure of the level of inhibition. Ten concentrations of compounds were tested in three- or fivefold dilutions. From the counts, percentage of inhibition at highest concentration tested or IC50s for the compounds were calculated using GraFit 3, GraFit 4 or GraFit 5 (Erithacus Software Ltd.) software packages or a data evaluation macro for Excel based on XLFit Software (IDBS).

T1 sequence (Q9WMX2 2420-3010): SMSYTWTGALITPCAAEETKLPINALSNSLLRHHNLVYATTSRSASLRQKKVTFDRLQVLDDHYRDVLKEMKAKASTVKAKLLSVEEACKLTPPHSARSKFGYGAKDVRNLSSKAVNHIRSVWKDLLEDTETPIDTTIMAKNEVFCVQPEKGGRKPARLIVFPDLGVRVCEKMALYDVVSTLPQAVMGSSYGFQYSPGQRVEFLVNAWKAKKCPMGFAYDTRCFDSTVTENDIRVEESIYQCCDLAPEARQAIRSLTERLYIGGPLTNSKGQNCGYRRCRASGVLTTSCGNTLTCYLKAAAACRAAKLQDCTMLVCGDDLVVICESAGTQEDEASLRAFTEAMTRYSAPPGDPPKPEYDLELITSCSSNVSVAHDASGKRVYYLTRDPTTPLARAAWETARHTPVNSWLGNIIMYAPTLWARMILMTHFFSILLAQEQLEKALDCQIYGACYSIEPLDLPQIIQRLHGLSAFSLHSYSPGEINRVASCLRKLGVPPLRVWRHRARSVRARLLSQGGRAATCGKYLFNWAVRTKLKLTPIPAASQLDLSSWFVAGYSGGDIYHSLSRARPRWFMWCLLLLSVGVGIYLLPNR

On to `COc1cc(C(=O)N2[C@@H](c3nccs3)[C@@H](c3cnccn3)C[C@@]2(CC(C)C)C(=O)O)ccc1C(C)(C)C` (racemic) [Compound A, rel-(2S,4S,5R)-2-Isobutyl-1-(4-tert-butyl-3-methoxybenzoyl)-4-(pyrazin-2-yl)-5-(1,3-thiazol-2-yl)pyrrolidine-2-carboxylic acid, reference compound], for which the half-inhibitory concentration (IC50) (usually the midpoint of a concentration-inhibition curve) in assay [1] fell in the range of 10000 to 100000 nM; in assay [2] it was 100 to 500 nM.

For the molecule `COc1cc(C(=O)N2[C@@H](c3nccs3)[C@@H](c3cnccn3)C[C@@]2(Cc2ccccn2)C(=O)O)ccc1C(C)(C)C` (racemic) [Compound C, rel-(2R,4S,5R)-1-(4-tert-Butyl-3-methoxybenzoyl)-2-(pyridin-2-ylmethyl)-4-(pyrazin-2-yl)-5-(1,3-thiazol-2-yl)pyrrolidine-2-carboxylic acid, reference compound], the IC50 in assay [1] lay in the range of 10000 to 100000 nM; in assay [2], 100 to 500 nM.

Regarding `COc1cc(C(=O)N2[C@@H](c3nccs3)[C@@H](c3cnccn3)C[C@@]2(Cc2c[nH]cn2)C(=O)O)ccc1C(C)(C)C` (racemic) [Compound D, rel-(2R,4S,5R)-1-(4-tert-Butyl-3-methoxybenzoyl)-2-(1H-imidazol-4-yl-methyl)-4-(pyrazin-2-yl)-5-(1,3-thiazol-2-yl)-pyrrolidine-2-carboxylic acid, reference compound], the values for the IC50 in assay [1] and in assay [2] were > 100000 nM and 100 to 500 nM, respectively.

Take `COc1cc(C(=O)N2[C@@H](c3cncs3)[C@@H](c3cnccn3)C[C@@]2(CCSC)C(=O)O)ccc1C(C)(C)C` (racemic) [Compound E, rel-(2R,4S,5R)-1-(4-tert-Butyl-3-methoxybenzoyl)-2-(2-(methylthio)ethyl)-4-(pyrazin-2-yl)-5-(1,3-thiazol-5-yl)-pyrrolidine-2-carboxylic acid, reference compound]: the values for the IC50 in assay [1] and in assay [2] were 10000 to 100000 nM and 100 to 500 nM, respectively.

On to `COc1cc(C(=O)N2[C@@H](c3nccs3)[C@@H](c3cnccn3)C[C@@]2(CCS(C)(=O)=O)C(=O)O)ccc1C(C)(C)C` (racemic) [Compound F, rel-(2R,4S,5R)-1-(4-tert-Butyl-3-methoxybenzoyl)-2-(2-(methylsulphonyl)ethyl)-4-pyrazin-2-yl-5-(1,3-thiazol-2-yl)-pyrrolidine-2-carboxylic acid, reference compound], for which the results for the IC50 in assay [1] and in assay [2] were > 100000 nM and > 500 nM, respectively.

As to `COc1cc(C(=O)N2[C@@H](c3nccs3)[C@@H](c3cnccn3)C[C@@]2(Cc2ccccc2)C(=O)O)ccc1C(C)(C)C` (racemic) [Compound G, rel-(2R,4S,5R)-1-(4-tert-Butyl-3-methoxybenzoyl)-2-(phenylmethyl)-4-(pyrazin-2-yl)-5-(1,3-thiazol-2-yl)pyrrolidine-2-carboxylic acid, reference compound], the IC50 lay in the range of 10000 to 100000 nM in assay [1] and 100 to 500 nM in assay [2].

In the case of `COc1cc(C(=O)N2[C@@H](c3nccs3)[C@@H](c3cnccn3)C[C@@]2(Cc2cscn2)C(=O)O)ccc1C(C)(C)C` (racemic) [Example 1, rel-(2R,4S,5R)-1-(3-Methoxy-4-tert-butylbenzoyl)-4-(pyrazin-2-yl)-2-(1,3-thiazol-4-ylmethyl)-5-(1,3-thiazol-2-yl)pyrrolidine-2-carboxylic acid], the IC50 was < 10000 nM in assay [1] and < 100 nM in assay [2].

Take `COc1cc(C(=O)N2[C@@H](c3nccs3)[C@@H](c3cnccn3)C[C@@]2(Cc2nccs2)C(=O)O)ccc1C(C)(C)C` (racemic) [Example 3, rel-(2R,4S,5R)-1-(3-Methoxy-4-tert-butylbenzoyl)-4-(pyrazin-2-yl)-2-(1,3-thiazol-2-ylmethyl)-5-(1,3-thiazol-2-yl)pyrrolidine-2-carboxylic acid]: the concentration for half-maximal inhibition (IC50) in assay [1] was < 10000 nM; in assay [2], < 100 nM.

`COc1cc(C(=O)N2[C@@H](c3ncc(C)s3)[C@@H](c3cnccn3)C[C@@]2(Cc2ccsn2)C(=O)O)ccc1C(C)(C)C` (racemic) [Example 5, rel-(2R,4S,5R)-1-(3-Methoxy-4-tert-butylbenzoyl)-5-(5-methyl-1,3-thiazol-2-yl)-4-(pyrazin-2-yl)-2-(1,2-thiazol-3-ylmethyl)pyrrolidine-2-carboxylic acid]: the values for the IC50 in assay [1] and in assay [2] were < 10000 nM and < 100 nM, respectively.

In the case of `COc1cc(C(=O)N2[C@@H](c3nccs3)[C@@H](c3cnccn3)C[C@@]2(Cc2ccsn2)C(=O)O)ccc1C(C)(C)C` (racemic) [Example 7, rel-(2R,4S,5R)-1-(3-Methoxy-4-tert-butylbenzoyl)-4-(pyrazin-2-yl)-2-(1,2-thiazol-3-ylmethyl)-5-(1,3-thiazol-2-yl)pyrrolidine-2-carboxylic acid], the IC50 is < 10000 nM in assay [1] and < 100 nM in assay [2].

On to `COc1cc(C(=O)N2[C@@H](c3ncc(C)s3)[C@@H](c3cnccn3)C[C@@]2(Cn2cccn2)C(=O)O)ccc1C(C)(C)C` (racemic) [Example 9, rel-(2R,4S,5R)-1-(3-Methoxy-4-tert-butylbenzoyl)-5-(5-methyl-1,3-thiazol-2-yl)-4-(pyrazin-2-yl)-2-(1H-pyrazol-1-ylmethyl)pyrrolidine-2-carboxylic acid], for which the figures for the half-inhibitory concentration (IC50) in assay [1] and in assay [2] were < 10000 nM and < 100 nM, respectively.
